Measured values taken from publication PMC10974533, “Cationicity Enhancement on the Hydrophilic Face of Ctriporin Significantly Reduces Its Hemolytic Activity and Improves the Antimicrobial Activity against Antibiotic-Resistant ESKAPE Pathogens” (Toxins, 2024).
Where a SMILES comes first, the peptide text is derived from it.

Assays:
[1] = test system: E. coli ATCC35218; test: MIC, broth dilution, standard strain; type: cell-based; details: broth dilution (CLSI), MHB, 37 °C, 16–20 h
Summary of the method: (§1)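 Peptides are tested across a twofold series (1–64 μg/mL) in Mueller–Hinton broth, following CLSI broth dilution. Inocula are mid-log cells grown at 37 °C and 150 rpm, diluted to a final 5 × 10^5 CFU/mL.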

[2] = test system: P. aeruginosa ATCC27853; test: MIC, broth dilution, standard strain; type: cell-based; details: broth dilution (CLSI), MHB, 37 °C, 16–20 h
Summary of the method: as §1

[3] = test system: S. aureus ATCC25923; test: MIC, broth dilution, standard strain; type: cell-based; details: broth dilution (CLSI), MHB, 37 °C, 16–20 h
Summary of the method: as §1

[4] = test system: standard ESKAPE strains; type: cell-based; details: broth dilution (CLSI), MHB
Summary of the method: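 CLSI broth dilution MIC in Mueller–Hinton broth, 5 × 10^5 CFU/mL mid-growth-phase cells, peptides at 1, 2, 4, 8, 16, 32 and 64 μg/mL, 37 °C. Standard ATCC strains; repeated at least three times.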

[5] = test system: carbapenem-resistant (CRE) A. baumannii; details: cited from earlier work
From the text: A wealth of CαAMPs have been identified from the venom glands of various scorpion species. Among these peptides, the members of short cationic AMP family are a group of cationic α-helical peptides with 17 to 19 residues, including Ctriporin [17], Mucroporin [18], Imcroporin [19], Stigmurin [20], TsAP-1 and TsAP-2 [21], AamAP1 and AamAP2 [22], and BmKb1 and BmKb2 [23]. Some peptides from this family were reported to show antimicrobial activity against methicillin-resistant S. aureus. We identified Lausporin-2 from the venom of Liocheles au ...

[6] = 5 × 10^5 CFU/mL, OD630, repeated at least three times

CC[C@H](C)[C@H](NC(=O)[C@H](C)NC(=O)CNC(=O)[C@@H]1CCCN1C(=O)[C@@H](NC(=O)[C@H](CC(C)C)NC(=O)CNC(=O)[C@H](Cc1c[nH]c2ccccc12)NC(=O)[C@H](CC(C)C)NC(=O)[C@@H](N)Cc1ccccc1)[C@@H](C)CC)C(=O)N[C@@H](CO)C(=O)N[C@@H](C)C(=O)N[C@H](C(=O)N[C@H](C(=O)N[C@@H](CO)C(=O)N[C@@H](CC(C)C)C(=O)N[C@H](C(=O)N[C@@H](CCCCN)C(=O)N[C@@H](CCCCN)C(N)=O)[C@@H](C)CC)[C@@H](C)O)C(C)C [Ctriporin] (H-FLWGLIPGAISAVTSLIKK-NH2; N-terminus assumed)
MICs [1, 6]: > 64 µg/mL | MICs ([1]; value in parentheses): > 31.8 µM | MICs [2, 6]: > 64 µg/mL | MICs ([2]; value in parentheses): > 31.8 µM | MICs [3, 6]: 32 µg/mL | MICs ([3]; value in parentheses): 15.9 µM | MICs against S. aureus and A. baumannii ([4]; standard strains of S. aureus and A. baumannii): 16 to 32 µg/mL | MICs for other tested bacterial species ([4]; standard strains other than S. aureus and A. baumannii): ≥ 64 µg/mL | antimicrobial activity against carbapenem-resistant (CRE) A. baumannii [5]: moderate antimicrobial activity
